Measurements published in patent publication US7781565B2 (priority 2006, dated 2010).
“Also recorded” adds a separate entry of the source.

Each substance was assayed on NCI-60 cell lines.
Type: cell-based, human

Row | Substance | Cell Line the peptide is associated with (peptide recovered from phage library selection on this NCI-60 cell line) | Cell Line (NCI-60 cell line the peptide is associated with) | Cell Line with which the peptide (and its tripeptide motif) is associated | Cell Line (NCI-60 cell line the peptide and its motif are associated with)
1 | GLVSTLI | BT-549 Breast |  |  | 
2 | PGGLVPG |  | HT-29 Colon |  | 
3 | LRSSGAT |  |  | H322-Lung | 
4 | GSSTLQW | TK-10 Renal |  |  | 
5 | FFPAGGP |  |  | EKVX-Lung | 
6 | FAGGSTD |  |  | HL-60-Leukemia | 
7 | NEFLGRL |  | HCT-116 Colon |  | 
8 | GLGGGGS |  | SF-268 CNS |  | 
9 | PNRRVSA |  |  | Hop-92-Lung | 
10 | LLRRAVF |  |  | Hop-62-Lung | 
11 | GTLGGRV |  | HT-29 Colon |  | 
12 | LASLGVG |  |  | H23-Lung | 
13 | AGWRLSQ | CAIK-1 Renal |  |  | 
14 | MRGSGRN |  | KM-12C Colon |  | 
15 | WVSGRLG |  | COLO-205-Colon |  | 
16 | GLRGVVK |  | HCT-116 Colon |  | 
17 | EWHAASG |  |  |  | SK-MEL-2 Melanoma
18 | SDVSGSS |  |  | H322-Lung | 
19 | RYRVSVY |  | KM-12C Colon |  | 
20 | FAGRAPR | ACHN Renal |  |  | 
21 | MFARGWE |  |  | CCRF-CEM Leukemia | 
22 | RVPTGVR | SN12C Renal |  |  | 

Row | Substance | Cell Line the peptide is associated with (peptide recovered from phage library selection on this NCI-60 cell line) | Cell Line (NCI-60 cell line the peptide is associated with) | Cell Line with which the peptide (and its tripeptide motif) is associated | Cell Line (NCI-60 cell line the peptide and its motif are associated with)
23 | LRSSMML |  | MALME-3M Melanoma |  | 
24 | SGRVFRF | HS 578 T Breast |  |  | 
25 | ASLHHRR |  | SW620-Colon |  | 
26 | GRVPTVV |  | KM-12C Colon |  | 
27 | RVAAGGL | T-47D Breast |  |  | 
28 | SAVSESP |  |  |  | SK-OV-3-3 Ovarian
29 | QVMMRGS |  |  | HL-60-Leukemia | 
30 | DGVSSDY |  | COLO-205-Colon |  | 
31 | YSIMRVS |  | SF-295 CNS |  | 
32 | EGARASD |  |  | Hop-92-Lung | 
33 | ALVSRRG |  |  | Molt-4-Leukemia | 
34 | ISGVSDD | BT-549 Breast |  |  | 
35 | SRVSFHE |  | MALME-3M Melanoma |  | 
36 | AGGFGVL |  |  |  | IGROV1 Ovarian
37 | AAVWAAD |  |  | HL-60-Leukemia | 
38 | YVGLVVS |  |  | SR Leukemia | 
39 | HVRSSYA | HS 578 T Breast |  |  | 
40 | AGLWPWN | CAIK-1 Renal |  |  | 
41 | GAGGMAR |  |  | RPMI-8226-Leukemia | 
42 | GPSSAVE |  |  |  | OVCAR-5 Ovarian
43 | SNHTASL |  | SF-295 CNS |  | 
44 | HVRGRVA |  |  |  | SK-MEL-5 Melanoma

Row | Substance | Cell Line the peptide is associated with (peptide recovered from phage library selection on this NCI-60 cell line) | Cell Line (NCI-60 cell line the peptide is associated with) | Cell Line with which the peptide (and its tripeptide motif) is associated | Cell Line (NCI-60 cell line the peptide and its motif are associated with)
45 | FLRVGEL |  |  | Hop-62-Lung | 
46 | LRLSGHD | NCI/ADR-RES Breast |  |  | 
47 | YATLGSS |  |  |  | PC3 Prostate
48 | SQSGGRH |  |  | Molt-4-Leukemia | 
49 | HKLARGR |  |  | EKVX-Lung | 
50 | MSNLAAV |  | COLO-205-Colon |  | 
51 | VRLSGRA |  | SNB-19 CNS; also recorded: SF-539 CNS |  | 
52 | RAAGGSR |  |  | RPMI-8226-Leukemia | 
53 | RLETLLS | UO31 Renal |  |  | 
54 | WDGSSVS | SN12C Renal |  |  | 
55 | DAGGMDL |  | HT-29 Colon |  | 
56 | ALVSSHV |  |  |  | SK-MEL-2 Melanoma
57 | AAKTLLS |  | SW620-Colon |  | 
58 | GLGAVGW |  | HT-29 Colon |  | 
59 | GRLMPGG | ACHN Renal |  |  | 
60 | WTVGGRV | A498 Renal |  |  | 
61 | FRASLQY |  |  | Hop-62-Lung | 
62 | SGGRFVP | MDA-MB-231 Breast |  |  | 
63 | SRSGRLN |  |  |  | SK-MEL-2 Melanoma
64 | PLQRGSG | BT-549 Breast |  |  | 
65 | VKGSSMR | A498 Renal |  |  | 
66 | ARAIGLG |  |  | Molt-4-Leukemia | 

Row | Substance | Cell Line the peptide is associated with (peptide recovered from phage library selection on this NCI-60 cell line) | Cell Line (NCI-60 cell line the peptide is associated with) | Cell Line with which the peptide (and its tripeptide motif) is associated | Cell Line (NCI-60 cell line the peptide and its motif are associated with)
67 | RVRAVLG |  |  |  | SK-MEL-28 Melanoma
68 | VAASVRE |  |  |  | OVCAR-3 Ovarian
69 | GGVSRMR | CAIK-1 Renal |  |  | 
70 | CGAVAEW |  |  |  | PC3 Prostate
71 | WAHAASY | CAIK-1 Renal |  |  | 
72 | GVLHSIA |  |  | K-562-Leukemia | 
73 | LYMGGSH | TK-10 Renal |  |  | 
74 | SVVRRGS | ACHN Renal |  |  | 
75 | RAAVGAR |  |  | H23-Lung | 
76 | SELRSIR |  | COLO-205-Colon |  | 
77 | GALRVPW |  | HCT-15 Colon |  | 
78 | ELHPRGV |  |  | K-562-Leukemia | 
79 | INRGSRE |  |  |  | SK-MEL-28 Melanoma
80 | AGLLSDV | NCI/ADR-RES Breast |  |  | 
81 | TQYYGSS |  | SNB-19 CNS; also recorded: SF-539 CNS |  | 
82 | HSLVSQP |  | SNB-19 CNS; also recorded: SF-539 CNS |  | 
83 | LYVDASL | MDA-MB-435-Breast |  |  | 
84 | SGPGRLP |  |  |  | M14 Melanoma
85 | FDRAVAN |  |  | Hop-62-Lung | 
86 | AATLLSF |  |  | K-562-Leukemia | 
87 | LRVGHAG | SN12C Renal |  |  | 
88 | ASGRVAN |  | HCT-116 Colon |  | 

Row | Substance | Cell Line the peptide is associated with (peptide recovered from phage library selection on this NCI-60 cell line) | Cell Line (NCI-60 cell line the peptide is associated with) | Cell Line with which the peptide (and its tripeptide motif) is associated | Cell Line (NCI-60 cell line the peptide and its motif are associated with)
89 | RGGQRAS |  |  |  | M14 Melanoma
90 | RSSGLGF |  |  | Hop-62-Lung | 
91 | DGPSCVI |  |  |  | UACC62 Melanoma
92 | EVLVSGD |  |  | Molt-4-Leukemia | 
93 | DVVGVLK |  | SF-268 CNS |  | 
94 | PLRVLKR |  | SF-295 CNS |  | 
95 | IGAVSGW |  | SNB-75 CNS |  | 
96 | WTKRGSV |  |  | K-562-Leukemia | 
97 | SSGGRSS |  | MALME-3M Melanoma |  | 
98 | QLLSQVY | MCF-7 Breast |  |  | 
99 | GAVRSVM | TK-10 Renal |  |  | 
100 | FSGDAVS |  | HT-29 Colon |  | 
101 | GTGAAVF | RXF393 Renal |  |  | 
102 | QVRRGVV |  | HT-29 Colon |  | 
103 | RVGTLRV |  |  |  | SK-OV-3-3 Ovarian
104 | IHRGVWG |  |  |  | 786-0 Renal
105 | LLSVTSX | SN12C Renal |  |  | 
106 | VGRLAKG |  |  | Hop-62-Lung | 
107 | VWGVGGS |  |  | K-562-Leukemia | 
108 | GVSKVRA |  |  | A549-Lung | 
109 | GDRRLVS | NCI/ADR-RES Breast |  |  | 
110 | GSGGSVH |  |  | Hop-92-Lung | 

Row | Substance | Cell Line the peptide is associated with (peptide recovered from phage library selection on this NCI-60 cell line) | Cell Line (NCI-60 cell line the peptide is associated with) | Cell Line with which the peptide (and its tripeptide motif) is associated | Cell Line (NCI-60 cell line the peptide and its motif are associated with)
111 | RRGLGDA | TK-10 Renal |  |  | 
112 | QGYALRV |  |  | H23-Lung | 
113 | RGVNYRS | RXF393 Renal |  |  | 
114 | LRSRLGF |  |  | SR Leukemia | 
115 | GVLGCDG |  |  |  | PC3 Prostate
116 | GLLSAGI |  | SF-268 CNS |  | 
117 | VTGGRVD |  |  | A549-Lung | 
118 | ARGVSAP |  | KM-12C Colon |  | 
119 | AAGAGWR |  |  |  | OVCAR-4 Ovarian
120 | GAVDGSR |  |  | RPMI-8226-Leukemia | 
121 | VRRSSKF | BT-549 Breast |  |  | 
122 | DLVGRVR | BT-549 Breast |  |  | 
123 | NNVGGSS |  |  |  | OVCAR-4 Ovarian
124 | VRGSRWR |  | HT-29 Colon |  | 
125 | PQGPSSV | ACHN Renal |  |  | 
126 | GWGGGSA |  | MALME-3M Melanoma |  | 
127 | CMAGSQD | SN12C Renal |  |  | 
128 | FVGRVGE | A498 Renal |  |  | 
129 | AASTRSL |  | MALME-3M Melanoma |  | 
130 | AWAGGDM |  |  |  | DU-145 Prostate
131 | GAGSGRT | HS 578 T Breast |  |  | 
132 | NRSSAKF |  |  | K-562-Leukemia | 
